{
  "source": "ChEMBL document CHEMBL2074069",
  "about": "“Drug- and estrogen-induced cholestasis through inhibition of the hepatocellular bile salt export pump (Bsep) of rat liver” (Gastroenterology, 2000)",
  "key": {"[1]": {"molecular_target": "T1, Bile salt export pump (Rattus norvegicus, UniProt O70127)", "T1 sequence (O70127 whole entry)": "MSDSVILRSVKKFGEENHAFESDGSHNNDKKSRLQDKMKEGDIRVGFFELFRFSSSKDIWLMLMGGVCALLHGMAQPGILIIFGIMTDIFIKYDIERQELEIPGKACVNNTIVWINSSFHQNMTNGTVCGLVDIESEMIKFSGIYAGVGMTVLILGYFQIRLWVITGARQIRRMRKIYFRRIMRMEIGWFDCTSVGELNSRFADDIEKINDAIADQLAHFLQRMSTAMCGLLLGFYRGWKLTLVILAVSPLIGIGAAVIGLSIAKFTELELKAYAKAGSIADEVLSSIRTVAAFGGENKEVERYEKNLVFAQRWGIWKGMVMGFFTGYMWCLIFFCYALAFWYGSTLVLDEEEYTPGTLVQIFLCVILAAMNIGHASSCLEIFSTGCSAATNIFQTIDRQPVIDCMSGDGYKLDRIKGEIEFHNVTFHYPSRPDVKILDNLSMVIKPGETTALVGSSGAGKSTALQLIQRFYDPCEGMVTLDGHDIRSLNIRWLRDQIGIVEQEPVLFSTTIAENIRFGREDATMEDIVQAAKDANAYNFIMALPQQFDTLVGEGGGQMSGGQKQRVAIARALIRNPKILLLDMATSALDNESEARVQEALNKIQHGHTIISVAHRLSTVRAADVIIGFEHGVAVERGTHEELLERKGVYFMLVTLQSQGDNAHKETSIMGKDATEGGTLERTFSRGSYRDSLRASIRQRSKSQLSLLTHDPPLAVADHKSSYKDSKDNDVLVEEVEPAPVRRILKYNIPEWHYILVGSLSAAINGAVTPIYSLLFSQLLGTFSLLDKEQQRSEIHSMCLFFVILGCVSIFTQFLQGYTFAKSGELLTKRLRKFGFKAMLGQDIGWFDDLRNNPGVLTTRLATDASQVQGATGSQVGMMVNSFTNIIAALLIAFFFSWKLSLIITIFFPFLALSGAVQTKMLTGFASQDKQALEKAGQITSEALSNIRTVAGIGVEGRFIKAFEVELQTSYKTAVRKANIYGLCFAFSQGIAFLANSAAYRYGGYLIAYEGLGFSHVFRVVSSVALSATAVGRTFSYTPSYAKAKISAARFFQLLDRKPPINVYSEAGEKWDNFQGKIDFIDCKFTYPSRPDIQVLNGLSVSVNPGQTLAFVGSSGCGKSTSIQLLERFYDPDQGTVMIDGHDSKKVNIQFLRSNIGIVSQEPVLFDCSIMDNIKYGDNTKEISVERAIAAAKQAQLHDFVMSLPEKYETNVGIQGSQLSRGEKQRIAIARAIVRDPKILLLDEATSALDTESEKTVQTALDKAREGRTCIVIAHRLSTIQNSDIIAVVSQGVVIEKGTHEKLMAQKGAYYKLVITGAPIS", "assay": "TP_TRANSPORTER: inhibition of Taurocholate uptake in membrane vesicles from Bsep-expressing Sf9 cells", "assay_type": "functional"}, "[2]": {"molecular_target": "T1, Bile salt export pump", "assay": "(§1) TP_TRANSPORTER: uptake in membrane vesicles from Bsep-expressing Sf9 cells", "assay_type": "functional"}, "[3]": {"molecular_target": "ATP-binding cassette sub-family C member 2 (Rattus norvegicus, UniProt Q63120)", "sequence (Q63120 whole entry)": "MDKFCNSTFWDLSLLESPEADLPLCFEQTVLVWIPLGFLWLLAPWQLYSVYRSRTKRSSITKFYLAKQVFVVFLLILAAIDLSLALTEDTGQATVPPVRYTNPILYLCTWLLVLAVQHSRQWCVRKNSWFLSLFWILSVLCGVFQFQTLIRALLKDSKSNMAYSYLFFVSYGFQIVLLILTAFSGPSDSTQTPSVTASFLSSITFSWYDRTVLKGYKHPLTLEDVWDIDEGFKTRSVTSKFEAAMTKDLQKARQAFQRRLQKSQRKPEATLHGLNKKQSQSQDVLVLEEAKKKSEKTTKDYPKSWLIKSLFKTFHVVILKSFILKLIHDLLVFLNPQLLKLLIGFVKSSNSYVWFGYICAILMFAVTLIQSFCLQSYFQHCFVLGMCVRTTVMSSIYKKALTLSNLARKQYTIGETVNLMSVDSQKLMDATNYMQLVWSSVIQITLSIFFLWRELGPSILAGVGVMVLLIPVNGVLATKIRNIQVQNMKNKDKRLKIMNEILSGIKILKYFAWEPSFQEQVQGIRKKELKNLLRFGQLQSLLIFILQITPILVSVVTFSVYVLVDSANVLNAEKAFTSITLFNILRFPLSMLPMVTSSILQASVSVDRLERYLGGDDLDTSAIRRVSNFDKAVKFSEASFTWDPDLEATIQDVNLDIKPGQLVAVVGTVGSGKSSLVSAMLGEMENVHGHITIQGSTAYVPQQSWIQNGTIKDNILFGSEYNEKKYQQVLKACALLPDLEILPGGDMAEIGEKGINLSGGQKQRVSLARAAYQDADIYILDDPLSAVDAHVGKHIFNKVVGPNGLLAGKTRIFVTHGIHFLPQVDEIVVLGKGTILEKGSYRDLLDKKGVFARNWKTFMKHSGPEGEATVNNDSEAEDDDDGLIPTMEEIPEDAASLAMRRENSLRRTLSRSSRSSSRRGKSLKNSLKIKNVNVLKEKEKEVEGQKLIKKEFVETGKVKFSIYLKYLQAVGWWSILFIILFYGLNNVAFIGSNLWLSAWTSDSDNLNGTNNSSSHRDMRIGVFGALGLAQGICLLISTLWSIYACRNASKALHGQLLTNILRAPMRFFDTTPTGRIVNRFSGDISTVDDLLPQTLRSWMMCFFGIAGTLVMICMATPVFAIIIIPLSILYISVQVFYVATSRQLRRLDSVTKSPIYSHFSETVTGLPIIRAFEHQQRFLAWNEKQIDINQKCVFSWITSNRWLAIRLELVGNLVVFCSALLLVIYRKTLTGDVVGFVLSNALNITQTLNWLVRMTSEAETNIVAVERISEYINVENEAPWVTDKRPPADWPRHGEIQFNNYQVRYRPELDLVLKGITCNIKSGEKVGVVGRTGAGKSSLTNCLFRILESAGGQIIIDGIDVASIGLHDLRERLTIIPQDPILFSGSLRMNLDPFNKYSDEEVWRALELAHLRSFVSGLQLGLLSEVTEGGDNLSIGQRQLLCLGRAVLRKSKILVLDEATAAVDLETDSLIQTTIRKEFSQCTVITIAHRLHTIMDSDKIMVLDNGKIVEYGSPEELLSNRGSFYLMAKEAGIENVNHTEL", "assay": "TP_TRANSPORTER: uptake in membrane vesicles from Mrp2-expressing Sf9 cells", "assay_type": "functional, cell membranes, Membrane vesicle"}, "[4]": {"substrate": "C[C@H](CCC(=O)NCCS(=O)(=O)O)[C@H]1CC[C@H]2[C@@H]3[C@H](O)C[C@@H]4C[C@H](O)CC[C@]4(C)[C@H]3CC[C@]12C", "assay": "as §1", "assay_type": "functional"}, "[5]": {"substrate": "C[C@H](CCC(=O)NCCS(=O)(=O)O)[C@H]1CC[C@H]2[C@@H]3[C@@H](O)C[C@@H]4C[C@H](O)CC[C@]4(C)[C@H]3CC[C@]12C", "assay": "as §1", "assay_type": "functional"}},
  "data": [
    {"molecule": "CO[C@H]1/C=C/O[C@@]2(C)Oc3c(C)c(O)c4c(O)c(cc(O)c4c3C2=O)NC(=O)/C(C)=C\\C=C\\[C@H](C)[C@H](O)[C@@H](C)[C@@H](O)[C@@H](C)[C@H](OC(C)=O)[C@@H]1C", "note": "[RIFAMYCIN]", "values": [
      {"measurement": "Ki", "setting": "[1]", "result": 3.8, "unit": "µM"}
    ]},
    {"molecule": "C[C@H](CCC(=O)NCC(=O)O)[C@H]1CC[C@H]2[C@@H]3[C@H](O)C[C@@H]4C[C@H](O)CC[C@]4(C)[C@H]3C[C@H](O)[C@]12C", "note": "[GLYCOCHOLIC ACID]", "values": [
      {"measurement": "Activity", "setting": "[2]", "result": "substrate [+]"}
    ]},
    {"molecule": "C[C@H](CCC(=O)NCCS(=O)(=O)O)C1CC[C@H]2[C@@H]3CC[C@@H]4C[C@H](OS(=O)(=O)O)CC[C@]4(C)[C@H]3CC[C@]12C", "note": "(some centres undefined)", "values": [
      {"measurement": "Activity", "setting": "[3]", "result": "substrate [+]"}
    ]},
    {"molecule": "COc1ccc(Cl)cc1C(=O)NCCc1ccc(S(=O)(=O)NC(=O)NC2CCCCC2)cc1", "note": "[GLYBURIDE]", "values": [
      {"measurement": "Ki", "setting": "[1]", "result": 6.1, "unit": "µM"}
    ]},
    {"molecule": "CO[C@H]1/C=C/O[C@@]2(C)Oc3c(C)c(O)c4c(O)c(c(/C=N/N5CCN(C)CC5)c(O)c4c3C2=O)NC(=O)/C(C)=C\\C=C\\[C@H](C)[C@H](O)[C@@H](C)[C@@H](O)[C@@H](C)[C@H](OC(C)=O)[C@@H]1C", "note": "[RIFAMPIN]", "values": [
      {"measurement": "Ki", "setting": "[1]", "result": 11.9, "unit": "µM"}
    ]},
    {"molecule": "C[C@H](CCC(=O)NCC(=O)O)[C@H]1CC[C@H]2[C@@H]3[C@H](O)C[C@@H]4C[C@H](O)CC[C@]4(C)[C@H]3CC[C@]12C", "note": "[GLYCOCHENODEOXYCHOLATE]", "values": [
      {"measurement": "Activity", "setting": "[2]", "result": "substrate [+]"}
    ]},
    {"molecule": "C[C@H](CCC(=O)NCCS(=O)(=O)O)[C@H]1CC[C@H]2[C@@H]3CC[C@@H]4C[C@H](O)CC[C@]4(C)[C@H]3C[C@H](O)[C@]12C", "note": "[TAURODEOXYCHOLIC ACID]", "values": [
      {"measurement": "Activity", "setting": "[2]", "result": "substrate [+]"}
    ]},
    {"molecule": "Bile salt export pump (Rattus norvegicus) (protein) MSDSVILRSVKKFGEENHAFESDGSHNNDKKSRLQDKMKEGDIRVGFFELFRFSSSKDIWLMLMGGVCALLHGMAQPGILIIFGIMTDIFIKYDIERQELEIPGKACVNNTIVWINSSFHQNMTNGTVCGLVDIESEMIKFSGIYAGVGMTVLILGYFQIRLWVITGARQIRRMRKIYFRRIMRMEIGWFDCTSVGELNSRFADDIEKINDAIADQLAHFLQRMSTAMCGLLLGFYRGWKLTLVILAVSPLIGIGAAVIGLSIAKFTELELKAYAKAGSIADEVLSSIRTVAAFGGENKEVERYEKNLVFAQRWGIWKGMVMGFFTGYMWCLIFFCYALAFWYGSTLVLDEEEYTPGTLVQIFLCVILAAMNIGHASSCLEIFSTGCSAATNIFQTIDRQPVIDCMSGDGYKLDRIKGEIEFHNVTFHYPSRPDVKILDNLSMVIKPGETTALVGSSGAGKSTALQLIQRFYDPCEGMVTLDGHDIRSLNIRWLRDQIGIVEQEPVLFSTTIAENIRFGREDATMEDIVQAAKDANAYNFIMALPQQFDTLVGEGGGQMSGGQKQRVAIARALIRNPKILLLDMATSALDNESEARVQEALNKIQHGHTIISVAHRLSTVRAADVIIGFEHGVAVERGTHEELLERKGVYFMLVTLQSQGDNAHKETSIMGKDATEGGTLERTFSRGSYRDSLRASIRQRSKSQLSLLTHDPPLAVADHKSSYKDSKDNDVLVEEVEPAPVRRILKYNIPEWHYILVGSLSAAINGAVTPIYSLLFSQLLGTFSLLDKEQQRSEIHSMCLFFVILGCVSIFTQFLQGYTFAKSGELLTKRLRKFGFKAMLGQDIGWFDDLRNNPGVLTTRLATDASQVQGATGSQVGMMVNSFTNIIAALLIAFFFSWKLSLIITIFFPFLALSGAVQTKMLTGFASQDKQALEKAGQITSEALSNIRTVAGIGVEGRFIKAFEVELQTSYKTAVRKANIYGLCFAFSQGIAFLANSAAYRYGGYLIAYEGLGFSHVFRVVSSVALSATAVGRTFSYTPSYAKAKISAARFFQLLDRKPPINVYSEAGEKWDNFQGKIDFIDCKFTYPSRPDIQVLNGLSVSVNPGQTLAFVGSSGCGKSTSIQLLERFYDPDQGTVMIDGHDSKKVNIQFLRSNIGIVSQEPVLFDCSIMDNIKYGDNTKEISVERAIAAAKQAQLHDFVMSLPEKYETNVGIQGSQLSRGEKQRIAIARAIVRDPKILLLDEATSALDTESEKTVQTALDKAREGRTCIVIAHRLSTIQNSDIIAVVSQGVVIEKGTHEKLMAQKGAYYKLVITGAPIS", "values": [
      {"measurement": "Km", "setting": "[4]", "result": 2.2, "unit": "µM"},
      {"measurement": "Km", "setting": "[5]", "result": 4.1, "unit": "µM"}
    ]}
  ]
}
